Assay [1] in a line: Rhenium molecular probe-lipid overlay (dot blot). It is filed as binding. More on the design: key to interaction with Sphingosine (dot blot): ✓ indicates a positive interaction; x indicates no interaction. On the procedure:
(§1) The experimental protocol probe-lipid overlay was as follows: 50 μM of each lipids was loaded on to PVDF membranes (Perkin Elmer, USA), which were then incubated with molecular probes. PhenCyano and PhenPyridyl were assessed against eleven lipids including; sphingomyelin (Cat # S0756, Sigma Aldrich, USA), sphingosine (Cat # S7049; Sigma Aldrich, USA), L-phosphatidylethanolamine (Cat # P7943, Sigma Aldrich, USA), monosialodanglioside (GM1; Cat # G7641, Sigma Aldrich, USA), oleoly-L-?-lysophosphatidic acid (Cat # L7260, Sigma Aldrich, USA), palmitic acid (Cat # P5917, Sigma Aldrich, USA), sphingomyelin (Cat # S0756, Sigma Aldrich, USA), sphingosine (Cat # S7049; Sigma Aldrich, USA), L-?-phosphatidylethanolamine (Cat # P7943, Sigma Aldrich, USA), monosialodanglioside (GM1; Cat # G7641, Sigma Aldrich, USA), progesterone (Cat #102722, MP Biomedical, USA), ceramide (Cat # C2137; Sigma Aldrich, USA), triacylglycerol mix C2-C10 (Cat #17810, Sigma Aldrich, USA) and cholesteryl acetate (Cat #151114; Sigma Aldrich, USA).
(§2) All other molecular probes were assessed against a panel of six lipids including; sphingomyelin (Cat # S0756, Sigma Aldrich, USA), sphingosine (Cat # S7049; Sigma Aldrich, USA), L-?-phosphatidylethanolamine (Cat # P7943, Sigma Aldrich, USA), monosialodanglioside (GM1; Cat # G7641, Sigma Aldrich, USA), sphingomyelin (Cat # S0756, Sigma Aldrich, USA), sphingosine (Cat # S7049; Sigma Aldrich, USA), L-?-phosphatidylethanolamine (Cat # P7943, Sigma Aldrich, USA), monosialodanglioside (GM1; Cat # G7641, Sigma Aldrich, USA) and triacylglycerol mix C2-C10 (Cat #17810, Sigma Aldrich, USA).
(§3) Lipids were dissolved in ethanol, methanol or isopropanol for loading depending on solubility. Following lipid loading, membranes were left to dry for 20-30 minutes, then they were washed for 10 minutes in cold 10% ethanol, before they were incubated with 10 μM solution of each Rhenium molecular probe in cold 10% ethanol for one hour. Membranes were than washed four times for 10 minutes in cold 10% ethanol prior to imaging. Imaging was performed on an Image Quant Las 4000 (GE, Sweden) luminescent image analyser, with the Rhenium molecular probe being detected by excitation at 460 nm using an epi-blue light source, and detected using an 575 nm ethidium bromide filter.

Assay [2] in a line: Rhenium molecular probe-lipid overlay (dot blot). It is filed as binding. Further details: key to interaction with GM1 (dot blot): ✓ indicates a positive interaction; x indicates no interaction. As for the experimental part: as §1, §2, §3
Assay [3] deals with Drosophila fat body cells. Description: Live tissue staining with rhenium molecular probes (Examples 10, 13). In kind it is cell-based. On the procedure: (§4) Probes were dissolved in DMSO to obtain a stock solution with a concentration of 10 mM. Stock solutions were stored at room temperature in a dark place. Working solutions were prepared only at the time of use as the probe has reduced solubility in aqueous solutions. A Working solution was a dilution 1/1000 to 1/500 of the stock in DMSO to PBS or cell medium, and as such the percentage of DMSO used in actual cell experiments was less than 1%.
(§5) For tissues, the tissues were isolated in PBS (or other physiological media) and mounted on a coverslip. For cells, these were grown as per normal practice on coverslips.
(§6) The media was removed media and replaced with 10-20 μM solution of molecular probes in PBS (or appropriate physiological media/cell media) at a dilution of stock solution from 1/1000-1/500, for 15-30 minutes at physiologically appropriate temperature (37° C. for cell culture or 25° C. for insect larvae). […] If foetal calf serum is necessary for cell health, an increased incubation time may be necessary to obtain adequate staining.
The samples were washed for one minute in PBS. If co-staining was performed, the samples were washed in PBS for 30 seconds, before incubating with counterstain.
Tissues were mounted in optical coupling gel, such as carbomer-940 (Snowdrift farm, Tucson, USA) based gel to prevent dehydration prior to imaging and maintain tissue integrate (Rothstein, E. C., Nauman, M., Chesnick S., Balaban R. S., 2006, Multi-photon excitation microscopy in intact animals Journal of Microscopy 222, 58, 64). For cells, the coverslip was mounted in PBS for immediate imaging.
Samples were imaged immediately following staining.
Rhenium molecular probes were? excited at 800-830 nm using a two-photon pulse laser or 405 steady state laser and detection in the range of 490-670 nm, with an emission maxima at around 570.
Micrographs of 3T3 L1, 453 cells and CHOK1 cells and Drosophila fat body tissue stained with rhenium molecular probes, PhenCyan top, PhenPyridyl bottom are shown in FIG. 10. […] Left: confocal images; Right: fluorescence microscopy images. […]

Assay [4] relates to 3T3 L1 cells. Description: Live cell staining with rhenium molecular probes. To be noted: live samples, 10-20 μM probe. It is filed as cell-based. On the procedure: as §4, §5, §6
The samples were washed for one minute in PBS. […]
Micrographs of 3T3 L1, 453 cells and CHOK1 cells and Drosophila fat body tissue stained with rhenium molecular probes, PhenCyan top, PhenPyridyl bottom are shown in FIG. 10. […] Left: confocal images; Right: fluorescence microscopy images.

Assay [5] is described as follows: Rhenium molecular probe-lipid overlay (dot blot). In kind it is binding. To be noted: FIG. 7 / FIG. 8. On the procedure:
as §1, §2, §3

A short description of assay [6]: Rhenium molecular probe-lipid overlay (dot blot). It is filed as binding. As to conditions: FIG. 7. On the procedure: as §1
Lipids were dissolved in ethanol, methanol or isopropanol for loading depending on solubility. […] Imaging was performed on an Image Quant Las 4000 (GE, Sweden) luminescent image analyser, with the Rhenium molecular probe being detected by excitation at 460 nm using an epi-blue light source, and detected using an 575 nm ethidium bromide filter.

A short description of assay [7]: Rhenium molecular probe-lipid overlay (dot blot). In kind it is binding. Further details: key to interaction with PE (dot blot): ✓ indicates a positive interaction; x indicates no interaction. As for the experimental part: as §1, §2, §3
[8] abbreviates: 10 μM probe, 50 μM lipid on PVDF membrane.

Here are results for one compound from US20170328922A1, “METHODS AND PRODUCTS FOR LABELLING LIPIDS” (UNIVERSITY OF SOUTH AUSTRALIA, priority 2014, published 2017).

In the case of `N#Cc1ccc(-c2nn[n]([Re](=[C]=O)(=[C]=O)=[C]=O)n2)cc1.c1cnc2c(c1)ccc1cccnc12` [PhenCyano, Triscarbonyl phenanthroline (4-cyanophenyltetrazolato)Rhenium(I)], the “interaction with Sphingosine (dot blot)” value in assay [1] (setting [8]) is recorded as “✓”. Further, the “affinity towards sphingosine, in words” value in assay [1] (FIG. 7 / FIG. 8) is listed as “some affinity”. In assay [2] (setting [8]), the “interaction with GM1 (dot blot)” value is recorded as “✓”. Moreover, the “affinity towards monosialotetrahexosylganglioside (GM1), in words” value in assay [2] (FIG. 7 / FIG. 8) is “some affinity”. For the same compound, the “emission spectral profile in the acidic compartment versus lipid droplet” value in assay [3] (+2 h PF, following autophagic inducement) is “blue shift and an increase in emission intensity”. Moreover, the “staining pattern in Drosophila fat body cells” value in assay [3] (live samples, 10-20 μM probe) is recorded as “distribution consistent with lipid droplet staining”. Further, the “staining pattern in 3T3 L1 cells” value in assay [4] was “distribution consistent with lipid droplet staining”. Further, the “interaction with triglycerides, in words” value in assay [5] was “no interaction detected”. In assay [6], the “interaction with fatty acid (palmitic acid), in words” value is on record as “no interaction detected”. The “interaction with PE (dot blot)” value in assay [7] (setting [8]) is recorded as “✓”. Besides, the “affinity towards phosphatidylethanolamine (PE), in words” value in assay [7] (FIG. 7 / FIG. 8) is given as “some affinity”.
